One block for each molecule: values may come before it.
Tests used:
[1] = target: T1, 8-CN-FMN-OYE (Saccharomyces pastorianus, UniProt Q02899); assay: Oxidation of saturated carbonyl substrates by the catalyst with molecular oxygen (GC/MS); assay type: biochemical
T1 construct: made in house; host or cells: Escherichia coli (plasmid pET-3b)
Procedure: Two ml of 10 mM solution of hydrocinnamaldehyde (C6 H5 --CH2 --CH2 --CHO) in 100 mM sodium pyrophosphate buffer, pH 8.5 was taken in a 5 ml test tube with a small magnetic stir bar at room temperature. The catalyst, as a concentrated solution in the same buffer, was added to the above solution so that final concentration of the catalyst is 10 μM. […]
When and wherever side reactions were observed due to hydrogen peroxide (which is produced during the oxidation), 5 μl of catalase (1 mg/ml) was added to the reaction mixture prior to the addition of the catalyst as a hydrogen peroxide scavenger.
The racemic 3-phenyl-butyraldehyde was subjected to typical oxidation reaction with the catalytic system of the present invention. […] It can be concluded, in analogy to the 3-Me-cyclopentanone reaction, that the oxidation of S-enantiomer only catalyzed by the catalyst leaving the R-enantiomer intact as hydrogen at the asymmetric center lies in unfavorable geometry. This reaction once again highlights the potential of the present catalytic system in resolving racemic carbonyl compounds.

[2] = Redox potential of flavin cofactor; assay type: physicochemical
[3] = target: T2, Old Yellow Enzyme (Saccharomyces pastorianus, UniProt Q02899); assay: p-Cl-phenol binding to native Old Yellow Enzyme (charge transfer complex); parameters: species or system Brewer's Bottom Yeast
T2 construct: recombinant OYE I (pET-3b, E. coli) or enzyme isolated from brewer's bottom yeast (mix of close OYE isoforms)
Procedure: The apoprotein of Old Yellow Enzyme was prepared and reconstituted with 8-CN-8-demethyl-flavin mononucleotide as described above. […] Native enzyme binds p-Cl-phenol with a Kd of~1 μM and has a maximum of 645 nm for the charge transfer absorption band. The 115 nm blue shift thus falls in line with the 170 mV more positive potential compared to that of the native flavin.

T1 sequence (Q02899 whole entry): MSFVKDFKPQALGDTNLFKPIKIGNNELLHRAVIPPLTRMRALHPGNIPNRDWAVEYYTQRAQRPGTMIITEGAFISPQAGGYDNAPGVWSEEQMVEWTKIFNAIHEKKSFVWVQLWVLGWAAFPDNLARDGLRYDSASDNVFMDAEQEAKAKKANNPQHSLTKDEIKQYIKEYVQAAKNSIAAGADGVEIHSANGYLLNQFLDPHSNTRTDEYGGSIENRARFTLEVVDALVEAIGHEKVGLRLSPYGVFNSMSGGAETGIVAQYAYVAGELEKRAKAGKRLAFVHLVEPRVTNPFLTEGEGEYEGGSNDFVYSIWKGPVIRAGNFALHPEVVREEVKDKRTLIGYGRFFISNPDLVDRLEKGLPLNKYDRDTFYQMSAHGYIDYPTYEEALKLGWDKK
T2 sequence (Q02899 2-400): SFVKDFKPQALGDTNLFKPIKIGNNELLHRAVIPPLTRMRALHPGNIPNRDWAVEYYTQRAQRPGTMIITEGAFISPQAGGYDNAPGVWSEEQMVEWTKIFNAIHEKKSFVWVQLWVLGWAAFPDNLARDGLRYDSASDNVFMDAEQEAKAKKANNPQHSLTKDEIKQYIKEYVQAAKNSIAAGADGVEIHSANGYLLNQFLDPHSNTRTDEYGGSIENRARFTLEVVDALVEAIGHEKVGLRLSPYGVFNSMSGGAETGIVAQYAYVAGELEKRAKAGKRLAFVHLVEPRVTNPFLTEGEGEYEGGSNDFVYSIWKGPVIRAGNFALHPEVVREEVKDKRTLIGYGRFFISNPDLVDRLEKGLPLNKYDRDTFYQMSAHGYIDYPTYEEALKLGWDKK

SMILES: O=CCCc1ccccc1 [hydrocinnamaldehyde]
conversion of the substrate to cinnamaldehyde ([1]; 10 mM substrate, 10 μM catalyst, pH 8.5, room temperature, 3 hours, GC/mass spectral analysis): complete conversion

redox potential [2]: -38 mV
redox potential positive to the native cofactor, FMN ([2]; difference versus FMN): about 170 mV
SMILES: Cc1cc2nc3c(=O)[nH]c(=O)nc-3n(C[C@H](O)[C@H](O)[C@H](O)COP(=O)(O)O)c2cc1C#N [8-CN-FMN, 8-CN-8-demethyl-flavin mononucleotide]

SMILES: Oc1ccc(Cl)cc1 [p-Cl-phenol]
Kd [3]: ~1 µM

substrate reacted ([1]; racemic substrate, 36 hours-48 hours, GC/MS): ~ 50%
SMILES: CC(CC=O)c1ccccc1 (racemic) [3-phenyl-butyraldehyde]

From US6046043A, “Method for the conversion of carbonyl compounds to their β-unsaturated derivatives using molecular oxygen as the oxidant” (The Regents of the University of Michigan, priority 1998, dated 2000)
